Type in all cases: cell-based, mouse
The subject of assay [1] is α7 integrin (LacZ reporter in α7βgal+/− myoblasts). The experiment in a line: Myoblast α7+/LacZ integrin FDG assay (Burkin assay in myoblasts, 96-well). Conditions: 96-well; for Burkin Assay in Myoblasts, signal relative to DMSO: α7+/LacZ myoblasts; for Burkin Assay in Myoblasts, value relative to DMSO: SU9516 analogs, N=3-6.
In assay [2] the test system is α7 integrin (LacZ reporter in α7+/LacZ myotubes). The assay can be described thus: Myotube α7 integrin FDG assay (Burkin assay in myotubes, 96-well). Conditions: for Burkin Assay in Myotubes, value relative to DMSO: SU9516 analogs, 96-well, N=3-6.
Assay [3] has as its system β-galactosidase in CMV-LacZ C2C12 myoblasts. The experiment in a line: CMV-LacZ secondary screen in C2C12 myoblasts (β-Gal stabilizing assay). Conditions: for CMV-LACZ in Myoblasts (β-galactosidase activity relative to DMSO): CMV-LacZ C2C12 myoblasts; for CMV-LACZ in Myoblasts, value relative to DMSO: SU9516 analogs, C2C12 CMV-LacZ, N=2. The method in brief:
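Stable CMV-LacZ C2C12 clone; six-point curve 0.5–40 μM; duplicates.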

Assay [4] relates to β-galactosidase in CMV-LacZ C2C12 myotubes. The experiment in a line: CMV-LacZ secondary screen in C2C12 myotubes (β-Gal stabilizing assay). To be noted: for CMV-LACZ in Myotubes, signal relative to DMSO: C2C12 CMV-LacZ myotubes, fold relative to DMSO; for CMV-LACZ in Myotubes, value relative to DMSO: SU9516 analogs, C2C12 CMV-LacZ, N=2. The method in brief:
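A secondary screen identifies compounds that stabilize β-gal independently of the native promoter, using CMV-LacZ C2C12 cells. Curves span 0.5–40 μM at six levels, in duplicate.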

Molecules are shown by their SMILES.

Regarding `Cn1ccc(C(=O)Nc2cccnc2Cl)n1` [MLS001147478-01], the “Burkin Assay in Myoblasts, signal relative to DMSO” value in assay [1] (0.5 uM) is listed as 1.142; in assay [1] (1 uM), 1.091; in assay [1] (5 uM), 1.0569; in assay [1] (10 uM) it was 1.192; in assay [1] (20 uM), 0.9651; in assay [1] (40 uM), 0.8215. Besides, the “Burkin Assay in Myotubes, α7 integrin LacZ reporter signal relative to DMSO” value in assay [2] (0.5 uM) is 1.076; in assay [2] (1 uM), 0.9677; in assay [2] (5 uM) it was 0.9933; in assay [2] (10 uM), 1.041; in assay [2] (20 uM), 0.8876; in assay [2] (40 uM), 0.8744. The “CMV-LACZ in Myoblasts (β-galactosidase activity relative to DMSO)” value in assay [3] (0.5 uM) is 1.0721; in assay [3] (1 uM) it was 0.8808; in assay [3] (5 uM) it was 1.2105; in assay [3] (10 uM), 1.2999; in assay [3] (20 uM) it was 1.0513; in assay [3] (40 uM), 0.8747. The “CMV-LACZ in Myotubes, signal relative to DMSO” value in assay [4] (0.5 uM) is on record as 1.3536; in assay [4] (1 uM) it was 1.3827; in assay [4] (5 uM) it was 0.8937; in assay [4] (10 uM), 1.2959; in assay [4] (20 uM) it was 1.0810; in assay [4] (40 uM) it was 0.9510.

As for `N/C(=N\OC(=O)c1cccc(C(F)(F)F)c1)c1cnccn1` [MLS001098105-01], the “Burkin Assay in Myoblasts, signal relative to DMSO” value is 0.9449 in assay [1] (0.5 uM); 1.029 in assay [1] (1 uM); 0.9936 in assay [1] (5 uM); 0.974 in assay [1] (10 uM); 1.075 in assay [1] (20 uM); 1.135 in assay [1] (40 uM). The “Burkin Assay in Myotubes, α7 integrin LacZ reporter signal relative to DMSO” value was determined as 1.052 in assay [2] (0.5 uM); 1.053 in assay [2] (1 uM); 0.916 in assay [2] (5 uM); 0.8354 in assay [2] (10 uM); 0.8142 in assay [2] (20 uM); 0.8459 in assay [2] (40 uM). In addition, the “CMV-LACZ in Myoblasts (β-galactosidase activity relative to DMSO)” value in assay [3] (0.5 uM) worked out at 1.4689; in assay [3] (1 uM), 0.8054; in assay [3] (5 uM), 0.9282; in assay [3] (10 uM), 0.9421; in assay [3] (20 uM), 1.0381; in assay [3] (40 uM), 0.8704. Moreover, the “CMV-LACZ in Myotubes, signal relative to DMSO” value is recorded as 0.9248 in assay [4] (0.5 uM); 1.2543 in assay [4] (1 uM); 0.9211 in assay [4] (5 uM); 1.3183 in assay [4] (10 uM); 0.9671 in assay [4] (20 uM); 1.2553 in assay [4] (40 uM).

As for `CCOc1ccc(Br)cc1S(=O)(=O)Nc1ccc(C(=O)Nc2ccccc2OC)cc1` [MLS000418650-01], the “Burkin Assay in Myoblasts, signal relative to DMSO” value turned out to be 0.9156 in assay [1] (0.5 uM); 1.069 in assay [1] (1 uM); 1.13 in assay [1] (5 uM); 0.9633 in assay [1] (10 uM); 0.9104 in assay [1] (20 uM); 0.9445 in assay [1] (40 uM). Moreover, the “Burkin Assay in Myotubes, α7 integrin LacZ reporter signal relative to DMSO” value in assay [2] (0.5 uM) is recorded as 1.086; in assay [2] (1 uM) it was 1.004; in assay [2] (5 uM) it was 1.032; in assay [2] (10 uM), 0.9654; in assay [2] (20 uM), 0.7581; in assay [2] (40 uM), 0.7593. For the same compound, the “CMV-LACZ in Myoblasts (β-galactosidase activity relative to DMSO)” value in assay [3] (0.5 uM) was determined as 0.9237; in assay [3] (1 uM), 0.9533; in assay [3] (5 uM), 1.0080; in assay [3] (10 uM), 0.8344; in assay [3] (20 uM), 1.1523; in assay [3] (40 uM), 1.1323. Also, the “CMV-LACZ in Myotubes, signal relative to DMSO” value in assay [4] (0.5 uM) was 1.0086; in assay [4] (1 uM) it was 1.2819; in assay [4] (5 uM) it was 1.0198; in assay [4] (10 uM) it was 1.1746; in assay [4] (20 uM), 1.1180; in assay [4] (40 uM), 1.2260.

As to `O=Nc1c(-c2c(O)[nH]c3ccccc23)[nH]c2ccccc12` [NCGC00015545-07], the “Burkin Assay in Myoblasts, value relative to DMSO” value was determined as 1.073 in assay [1] (0.5 uM); 1.12 in assay [1] (1 uM); 0.8463 in assay [1] (5 uM); 0.568 in assay [1] (10 uM); 0.3068 in assay [1] (20 uM); 0.242 in assay [1] (40 uM). Besides, the “Burkin Assay in Myotubes, value relative to DMSO” value in assay [2] (0.5 uM) is 1.126; in assay [2] (1 uM) it was 1.08; in assay [2] (5 uM), 0.8721; in assay [2] (10 uM), 0.7457; in assay [2] (20 uM), 0.6654; in assay [2] (40 uM), 0.4975. Also, the “CMV-LACZ in Myoblasts, value relative to DMSO” value in assay [3] (0.5 uM) is on record as 1.2967; in assay [3] (1 uM), 1.1950; in assay [3] (5 uM), 0.7896; in assay [3] (10 uM), 0.8603; in assay [3] (20 uM), 0.5257; in assay [3] (40 uM) it was 0.3383. The “CMV-LACZ in Myotubes, value relative to DMSO” value in assay [4] (0.5 uM) is 1.0736; in assay [4] (1 uM), 1.1036; in assay [4] (5 uM) it was 0.9434; in assay [4] (10 uM), 0.8393; in assay [4] (20 uM) it was 0.7010; in assay [4] (40 uM), 0.5470.

In the case of `COc1ccccc1NS(=O)(=O)c1cc(NC(=O)c2ccc(Cl)nc2)ccc1N1CCCC1` [MLS002248819-01], the “Burkin Assay in Myoblasts, signal relative to DMSO” value is 1.126 in assay [1] (0.5 uM); 1.113 in assay [1] (1 uM); 1.068 in assay [1] (5 uM); 1.0849 in assay [1] (10 uM); 0.8184 in assay [1] (20 uM); 0.7689 in assay [1] (40 uM). Also, the “Burkin Assay in Myotubes, α7 integrin LacZ reporter signal relative to DMSO” value in assay [2] (0.5 uM) turned out to be 1.117; in assay [2] (1 uM), 1.198; in assay [2] (5 uM), 1.066; in assay [2] (10 uM) it was 1.24; in assay [2] (20 uM) it was 0.9243; in assay [2] (40 uM), 0.8508. Moreover, the “CMV-LACZ in Myoblasts (β-galactosidase activity relative to DMSO)” value in assay [3] (0.5 uM) is 0.9206; in assay [3] (1 uM) it was 1.2206; in assay [3] (5 uM), 1.2604; in assay [3] (10 uM), 1.1575; in assay [3] (20 uM), 1.7330; in assay [3] (40 uM) it was 1.0270. Also, the “CMV-LACZ in Myotubes, signal relative to DMSO” value in assay [4] (0.5 uM) amounted to 1.0819; in assay [4] (1 uM), 0.9505; in assay [4] (5 uM) it was 1.1171; in assay [4] (10 uM), 1.1534; in assay [4] (20 uM), 0.9847; in assay [4] (40 uM) it was 1.1929.
